{
  "source": "patent US10214519B2",
  "about": "“Phosphatidylinositol 3-kinase inhibitors” (Gilead Sciences, Inc., priority 2016, dated 2019)",
  "data": [
    {"target": "PI3Kβ (Homo sapiens (Human), UniProt P42338)", "sequence (P42338 whole entry, canonical isoform)": "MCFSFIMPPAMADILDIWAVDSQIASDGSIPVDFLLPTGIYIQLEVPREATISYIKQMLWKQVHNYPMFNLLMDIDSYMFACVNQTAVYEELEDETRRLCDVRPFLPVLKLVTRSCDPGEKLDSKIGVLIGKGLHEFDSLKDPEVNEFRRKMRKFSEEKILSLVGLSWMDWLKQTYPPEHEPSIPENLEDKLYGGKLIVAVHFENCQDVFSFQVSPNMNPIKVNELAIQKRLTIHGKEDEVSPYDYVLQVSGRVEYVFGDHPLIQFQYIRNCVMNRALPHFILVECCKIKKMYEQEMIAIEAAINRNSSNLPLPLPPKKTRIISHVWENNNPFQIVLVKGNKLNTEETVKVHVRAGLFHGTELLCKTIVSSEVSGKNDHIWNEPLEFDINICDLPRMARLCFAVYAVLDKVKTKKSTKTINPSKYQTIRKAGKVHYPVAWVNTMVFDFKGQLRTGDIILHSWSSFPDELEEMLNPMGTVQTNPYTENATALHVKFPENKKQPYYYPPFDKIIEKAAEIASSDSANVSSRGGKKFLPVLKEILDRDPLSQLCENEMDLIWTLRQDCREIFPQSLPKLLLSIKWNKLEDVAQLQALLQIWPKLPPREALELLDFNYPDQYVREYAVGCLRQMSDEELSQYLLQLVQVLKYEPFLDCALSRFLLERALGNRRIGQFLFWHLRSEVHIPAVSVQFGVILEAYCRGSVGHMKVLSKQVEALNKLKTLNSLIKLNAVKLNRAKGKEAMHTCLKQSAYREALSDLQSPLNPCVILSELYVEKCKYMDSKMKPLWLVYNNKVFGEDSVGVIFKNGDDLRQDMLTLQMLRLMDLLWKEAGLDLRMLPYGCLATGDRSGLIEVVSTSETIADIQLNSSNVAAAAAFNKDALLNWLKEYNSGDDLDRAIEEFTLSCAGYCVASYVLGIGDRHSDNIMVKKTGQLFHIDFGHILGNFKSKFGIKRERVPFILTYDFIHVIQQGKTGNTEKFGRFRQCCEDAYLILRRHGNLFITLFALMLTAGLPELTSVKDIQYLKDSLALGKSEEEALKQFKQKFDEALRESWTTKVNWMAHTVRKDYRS", "sequence (P27986 whole entry partner, canonical isoform)": "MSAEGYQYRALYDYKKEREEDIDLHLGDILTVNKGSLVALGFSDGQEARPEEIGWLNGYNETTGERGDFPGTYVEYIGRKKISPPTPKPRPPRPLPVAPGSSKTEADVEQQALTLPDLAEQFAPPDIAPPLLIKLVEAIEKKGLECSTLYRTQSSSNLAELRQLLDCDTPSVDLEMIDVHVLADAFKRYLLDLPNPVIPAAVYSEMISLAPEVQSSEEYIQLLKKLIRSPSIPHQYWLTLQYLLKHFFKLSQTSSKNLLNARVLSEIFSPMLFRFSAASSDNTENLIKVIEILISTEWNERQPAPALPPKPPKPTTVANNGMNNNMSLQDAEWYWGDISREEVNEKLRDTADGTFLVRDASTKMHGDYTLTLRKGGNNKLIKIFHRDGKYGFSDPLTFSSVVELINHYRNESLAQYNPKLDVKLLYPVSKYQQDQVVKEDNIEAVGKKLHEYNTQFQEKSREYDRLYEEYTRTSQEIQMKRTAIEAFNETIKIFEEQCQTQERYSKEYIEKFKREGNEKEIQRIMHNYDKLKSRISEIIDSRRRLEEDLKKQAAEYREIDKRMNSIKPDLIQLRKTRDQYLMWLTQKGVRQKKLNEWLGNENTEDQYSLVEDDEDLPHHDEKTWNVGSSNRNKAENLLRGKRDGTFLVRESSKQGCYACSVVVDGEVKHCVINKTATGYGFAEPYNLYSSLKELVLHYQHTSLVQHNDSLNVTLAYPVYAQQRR", "assay": "PI3K isoform TR-FRET enzymatic assay (PI3Kβ)", "format": "biochemical", "conditions": "2× Km ATP, 30 minutes at 25° C.", "summary_of_the_method": "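IC50 came from four-parameter dose-response fits, normalized between DMSO and 1 μM wortmannin controls. The read-out was TR-FRET (615/665 nm) of PIP3 displacing fluorescent PIP3 from Europium GRP-1 after 10 mM EDTA termination. Compounds were incubated with purified heterodimeric PI3Kβ for 30 min at 25° C.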", "units": {"IC50": "nM"}, "values": [
      {"compound": "CCc1nc2c(-c3nnc(Cl)[nH]3)cc(N3CCOCC3)cc2n1-c1ccnc2c(F)ccc(F)c12", "note": "[Example 179, 4-[7-(5-chloro-4H-1,2,4-triazol-3-yl)-3-(5,8-difluoroquinolin-4-yl)-2-ethylbenzimidazol-5-yl]morpholine]", "IC50": 44},
      {"compound": "Cc1nc2c(-c3nnc(Cl)[nH]3)cc(N3CCOCC3)cc2n1-c1ccnc2c(F)ccc(F)c12", "note": "[Example 180, 4-[7-(5-chloro-4H-1,2,4-triazol-3-yl)-3-(5,8-difluoroquinolin-4-yl)-2-methylbenzimidazol-5-yl]morpholine]", "IC50": 42},
      {"compound": "Fc1ccc(F)c2c(-n3c(C4CC4)nc4c(-c5nnc(Cl)[nH]5)cc(N5CCOCC5)cc43)ccnc12", "note": "[Example 181, 4-[7-(5-chloro-4H-1,2,4-triazol-3-yl)-2-cyclopropyl-3-(5,8-difluoroquinolin-4-yl)benzimidazol-5-yl]morpholine]", "IC50": 210},
      {"compound": "CCCc1nc2c(-c3nnc(Cl)[nH]3)cc(N3CCOCC3)cc2n1-c1ccnc2c(F)ccc(F)c12", "note": "[Example 182, 4-[7-(5-chloro-4H-1,2,4-triazol-3-yl)-3-(5,8-difluoroquinolin-4-yl)-2-propylbenzimidazol-5-yl]morpholine]", "IC50": 34},
      {"compound": "Cc1nc2c(-c3cn[nH]c3)cc(N3CCOCC3)cc2n1-c1ccnc2c(Cl)cccc12", "note": "[Example 183, 4-(1-(8-chloroquinolin-4-yl)-2-methyl-4-(1H-pyrazol-4-yl)-1H-benzo[d]imidazol-6-yl)morpholine]", "IC50": 170},
      {"compound": "Clc1cccc2c(-n3c(C4CCCO4)nc4c(-c5ccccc5)cc(N5CCOCC5)cc43)ccnc12", "note": "(stereo not drawn) [Example 198]", "IC50": 120},
      {"compound": "Clc1cccc2c(-n3c(C4CCCO4)nc4c(-c5cccnc5)cc(N5CCOCC5)cc43)ccnc12", "note": "(stereo not drawn) [Example 199]", "IC50": 610},
      {"compound": "Cc1nc2c(-c3ncco3)cc(N3CCOCC3)cc2n1-c1ccnc2c(F)cccc12", "note": "[Example 200, 4-(1-(8-fluoroquinolin-4-yl)-2-methyl-4-(oxazol-2-yl)-1H-benzo[d]imidazol-6-yl)morpholine]", "IC50": 9},
      {"compound": "Cc1ncc(-c2cc(N3CCOCC3)cc3c2nc(C)n3-c2ccnc3c(Cl)cccc23)[nH]1", "note": "[Example 201, 4-[3-(8-chloroquinolin-4-yl)-2-methyl-7-(2-methyl-1H-imidazol-5-yl)benzimidazol-5-yl]morpholine]", "IC50": 19},
      {"compound": "Cc1nc2c(-c3cncn3C)cc(N3CCOCC3)cc2n1-c1ccnc2c(Cl)cccc12", "note": "[Example 202, 4-[3-(8-chloroquinolin-4-yl)-2-methyl-7-(3-methylimidazol-4-yl)benzimidazol-5-yl]morpholine]", "IC50": "> 10000"},
      {"compound": "Cc1nc2c(-c3cn(C)cn3)cc(N3CCOCC3)cc2n1-c1ccnc2c(Cl)cccc12", "note": "[Example 203, 4-[3-(8-chloroquinolin-4-yl)-2-methyl-7-(1-methylimidazol-4-yl)benzimidazol-5-yl]morpholine]", "IC50": 120},
      {"compound": "Cc1nc2c(-c3ncco3)cc(N3CCOCC3)cc2n1-c1ccnc2c(Cl)cccc12", "note": "[Example 204, 4-[3-(8-chloroquinolin-4-yl)-2-methyl-7-(1,3-oxazol-2-yl)benzimidazol-5-yl]morpholine]", "IC50": 8},
      {"compound": "Cc1csc(-c2cc(N3CCOCC3)cc3c2nc(C)n3-c2ccnc3c(Cl)cccc23)n1", "note": "[Example 205, 4-[3-(8-chloroquinolin-4-yl)-2-methyl-7-(4-methyl-1,3-thiazol-2-yl)benzimidazol-5-yl]morpholine]", "IC50": 12},
      {"compound": "CCc1nc2c(-c3cnc(C)[nH]3)cc(N3CCOCC3)cc2n1-c1ccnc2c(F)ccc(F)c12", "note": "[Example 206, 4-[3-(5,8-difluoroquinolin-4-yl)-2-ethyl-7-(2-methyl-1H-imidazol-5-yl)benzimidazol-5-yl]morpholine]", "IC50": 40},
      {"compound": "CCCc1nc2c(-c3cnc[nH]3)cc(N3CCOCC3)cc2n1-c1ccnc2c(Cl)cccc12", "note": "[Example 207, 4-[3-(8-chloroquinolin-4-yl)-7-(1H-imidazol-5-yl)-2-propylbenzimidazol-5-yl]morpholine]", "IC50": 13},
      {"compound": "Cc1nc2c(-c3cnc[nH]3)cc(N3CCOCC3)cc2n1-c1ccnc2c(F)cccc12", "note": "[Example 208, 4-[3-(8-fluoroquinolin-4-yl)-7-(1H-imidazol-5-yl)-2-methylbenzimidazol-5-yl]morpholine]", "IC50": 14},
      {"compound": "CCc1nc2c(-c3cnc[nH]3)cc(N3CCOCC3)cc2n1-c1ccnc2c(F)cccc12", "note": "[Example 209, 4-[2-ethyl-3-(8-fluoroquinolin-4-yl)-7-(1H-imidazol-5-yl)benzimidazol-5-yl]morpholine]", "IC50": 15},
      {"compound": "Cc1cc(-n2c(C)nc3c(-c4cnc[nH]4)cc(N4CCOCC4)cc32)c2cccc(F)c2n1", "note": "[Example 210, 4-[3-(8-fluoro-2-methylquinolin-4-yl)-7-(1H-imidazol-5-yl)-2-methylbenzimidazol-5-yl]morpholine]", "IC50": 27},
      {"compound": "CCc1nc2c(-c3cnc[nH]3)cc(N3CCOCC3)cc2n1-c1cc(C)nc2c(F)cccc12", "note": "[Example 211, 4-[2-ethyl-3-(8-fluoro-2-methylquinolin-4-yl)-7-(1H-imidazol-5-yl)benzimidazol-5-yl]morpholine]", "IC50": 22},
      {"compound": "CCCc1nc2c(-c3cnc(C)[nH]3)cc(N3CCOCC3)cc2n1-c1ccnc2c(Cl)cccc12", "note": "[Example 212, 4-[3-(8-chloroquinolin-4-yl)-7-(2-methyl-1H-imidazol-5-yl)-2-propylbenzimidazol-5-yl]morpholine]", "IC50": 34},
      {"compound": "CCc1nc2c(-c3ncco3)cc(N3CCOCC3)cc2n1-c1ccnc2c(F)cccc12", "note": "[Example 213, 4-[2-ethyl-3-(8-fluoroquinolin-4-yl)-7-(1,3-oxazol-2-yl)benzimidazol-5-yl]morpholine]", "IC50": 16},
      {"compound": "Fc1cccc2c(-n3c(C4CC4)nc4c(-c5ncco5)cc(N5CCOCC5)cc43)ccnc12", "note": "[Example 214, 4-[2-cyclopropyl-3-(8-fluoroquinolin-4-yl)-7-(1,3-oxazol-2-yl)benzimidazol-5-yl]morpholine]", "IC50": 56},
      {"compound": "Cc1cnc(-c2cc(N3CCOCC3)cc3c2nc(C)n3-c2ccnc3c(Cl)cccc23)s1", "note": "[Example 215, 4-[3-(8-chloroquinolin-4-yl)-2-methyl-7-(5-methyl-1,3-thiazol-2-yl)benzimidazol-5-yl]morpholine]", "IC50": 630},
      {"compound": "Cc1nc(-c2cc(N3CCOCC3)cc3c2nc(C)n3-c2ccnc3c(Cl)cccc23)sc1C", "note": "[Example 216, 4-[3-(8-chloroquinolin4-yl)-7-(4,5-dimethyl-1,3-thiazol-2-yl)-2-methylbenzimidazol-5-yl]morpholine]", "IC50": 380},
      {"compound": "CCc1nc2c(-c3ncco3)cc(N3CCOCC3)cc2n1-c1ccnc2c(F)ccc(F)c12", "note": "[Example 217, 4-[3-(5,8-difluoroquinolin-4-yl)-2-ethyl-7-(1,3-oxazol-2-yl)benzimidazol-5-yl]morpholine]", "IC50": 9},
      {"compound": "CCc1nc2c(-c3ncco3)cc(N3CCOCC3)cc2n1-c1ccnc2c(Cl)c(F)ccc12", "note": "[Example 218, 4-[3-(8-chloro-7-fluoroquinolin-4-yl)-2-ethyl-7-(1,3-oxazol-2-yl)benzimidazol-5-yl]morpholine]", "IC50": 11},
      {"compound": "CC(C)Cc1nc2c(-c3ncco3)cc(N3CCOCC3)cc2n1-c1ccnc2c(F)ccc(F)c12", "note": "[Example 219, 4-[3-(5,8-difluoroquinolin-4-yl)-2-(2-methylpropyl)-7-(1,3-oxazol-2-yl)benzimidazol-5-yl]morpholine]", "IC50": 8}
    ]}
  ]
}
